Results from patent US11879140B2, “P21 mRNA targeting DNAzymes” (1E Therapeutics Ltd., priority 2020, dated 2024).

These substances were tested on human p21 mRNA (assay: In vitro cleavage assay of human p21 mRNA). Details: in vitro cleavage of p21 mRNA (SEQ ID NO: 1); RNA substrate 500 nM, 37° C. 60 min, agarose gel.
Format: biochemical
Excerpt: Total RNA was isolates from senescent IMR-90 cells using Nucleospin® RNA kit (Macherey-Nagel™). cDNA was synthesized with gene-specific reverse primers using M-MLV Reverse Transcriptase (Promega), according to the manufacturer's protocol. To generate template for in vitro transcription (IVT) reaction, the cDNA was PCR amplified using KAPA Taq EXtra HotStart® ReadyMix™ PCR Kit (R&D). PCR product was run on 1.5% agarose TAE gel, the correct band size was cut and DNA was cleaned using Wizard® SV Gel and PCR Clean-Up System kit (Promega). IVT was performed using HiScribe™ T7 High Yield RNA Synthesis Kit (NEB). Samples were then treated with DNase I (New England Biolabs) and incubated for 15 minutes at 37° C. IVT product was run on 1.5% agarose TBE gel, the correct band size was cut and RNA was cleaned using QIAquick® Gel Extraction Kit (Qiagen). See primer sequences in Table 1, below.
RNA substrate was diluted with Molecular Biology Grade Water (Biological Industries) and used in in vitro cleavage assay. A 20 μl reaction system comprising RNA substrate (final concentration 500 nM), 2 μl 10× reaction buffer (50 mM Tris-HCl pH 7.4, 100 mM NaCl, 10 mM MgCl2) and 1 μl DNAzyme (10 μM) (as depicted in Table 2, below) was mixed. Reactions were incubated at 37° C. for 60 min. 2×RNA L.D. (Thermo Fisher) was added to each sample. Samples were heated at 70° C. for 30 sec, centrifuged and loaded onto 1.5% agarose TBE gels. Quantification was performed using Image Lab software (Bio Rad).
With “DNAzyme 1976: SEQ ID NO: 71: GGGGAGGGAggctagctacaacgaGGGGTGGAT (DNA GGGGAGGGAGGCTAGCTACAACGAGGGGTGGAT; DNA, backbone and methylation of C not given here)” the Validated cleavage was “validated for mediating cleavage of p21 mRNA”. With “DNAzyme 1854: SEQ ID NO: 65: CCTGTGCCAggctagctacaacgaCACATGGGA (DNA CCTGTGCCAGGCTAGCTACAACGACACATGGGA; DNA, backbone and methylation of C not given here)” the Validated cleavage was “validated for mediating cleavage of p21 mRNA”. For “DNAzyme 1116: SEQ ID NO: 41: AAAGGAGAAggctagctacaacgaACGGGAUGA (DNA AAAGGAGAAGGCTAGCTACAACGAACGGGAUGA; DNA, backbone, methylation of C and T or U not given here)”, the Validated cleavage was “validated for mediating cleavage of p21 mRNA”. In the case of “DNAzyme 2266: SEQ ID NO: 78: AGAGGTTTAggctagctacaacgaAGTCTAGGT (DNA AGAGGTTTAGGCTAGCTACAACGAAGTCTAGGT; DNA, backbone and methylation of C not given here)”, the Validated cleavage is reported as “validated for mediating cleavage of p21 mRNA”. For “DNAzyme 857: SEQ ID NO: 34: GCAGGCTTtccgagccggacgaTGTGGGCGG (GCAGGCTTTCCGAGCCGGACGATGTGGGCGG; DNA, backbone and methylation of C not given here)”, the Validated cleavage was “validated for mediating cleavage of p21 mRNA”. “DNAzyme 1851: SEQ ID NO: 64: GTGCCACCAggctagctacaacgaATGGGACCC (DNA GTGCCACCAGGCTAGCTACAACGAATGGGACCC; DNA, backbone and methylation of C not given here)” was tested, and the Validated cleavage was “validated for mediating cleavage of p21 mRNA”. “DNAzyme 1684: SEQ ID NO: 56: GAGAGGGTAggctagctacaacgaTGAAGGGAA (DNA GAGAGGGTAGGCTAGCTACAACGATGAAGGGAA; DNA, backbone and methylation of C not given here)” was tested, and the Validated cleavage was “validated for mediating cleavage of p21 mRNA”.

These substances were tested on senescent human IMR-90 fibroblast cells (assay: not given). Details: not given.
Format: cell-based
Experimental: Human IMR-90, BJ, WI-38 fibroblasts and REC epithelial cells were obtained from ATCC and grown at 5% oxygen. IMR-90 and REC cells were maintained in DMEM medium comprising 100 units per ml of penicillin, […] of streptomycin and 10% fetal bovine serum. BJ and WI-38 cells were maintained in EMEM medium comprising 100 units per ml of penicillin, […] of streptomycin, 10% fetal bovine serum, 1% Pyruvate, 1% L-Glutamine, mLFs were isolated according to standard procedures [Seluanov, A., et al. J Vis Exp (2010) (44):2033] and grown at 5% oxygen. Cells were maintained in EMEM medium comprising 100 units per ml of penicillin, […] of streptomycin and 15% fetal bovine serum.
DNA damage induced senescence (DIS) was induced by etoposide treatment (E1383, Sigma) at a concentration of […] for IMR-90, BJ, and WI-38, 16 μM for mLF and 12.5 μM for REC for a duration of 48 hours. Cells acquired the senescence phenotype 7 days post treatment (determined by SA-beta-gal staining).
Oncogene Induced Senescence (OIS) was induced by means of retroviral infection with H-RasG12 (pLNCX2) at 5% oxygen. Retroviruses were packaged, and infections were performed as described below.
Replicative Induced Senescence (RIS) was induced by long-term passaging of the cells in tissue culture. Cells acquired the senescence phenotype after 40 population doublings.
Primary target cells (IMR-90, BJ, […]) were plated in 24-well plates at 100,000 cells per well. Cells were transfected with different concentrations of DNAzymes (as depicted in Table 2, below) using Lipofectamine™ 2000 (Invitrogen) according to manufacturer instructions. The percentage of survival was determined based on quantification of remaining adherent cells using PrestoBlue® reagent (A13262, Life Technologies Ltd.) relative to Lipofectamine™ only control and compared to Scramble DNAzyme (Dz_Scramble) [Scramble Arm (Scr A) sequence: ATCTTCCTFggctagctacaacgaCGCCTCTCC, SEQ ID NO: 5, or Scramble catalytic core (Scr B) sequence: AGGAGAACAacagtaactggcgacGGGATGAGG, SEQ ID NO: 86] treated cells, 3-6 days following transfection.
With “1854 (DNA CCTGTGCCAGGCTAGCTACAACGACACATGGGA; chemistry not given here) [compound 1854]” the Validated cytotoxicity was “+”. For “1851 (DNA GTGCCACCAGGCTAGCTACAACGAATGGGACCC; chemistry not given here) [compound 1851]”, the Validated cytotoxicity was “+”. “857 (DNA GCAGGCTTTCCGAGCCGGACGATGTGGGCGG; chemistry not given here) [compound 857]” was tested, and the Validated cytotoxicity was “+”. In the case of “1455 (DNA AGGGGGGTAGGCTAGCTACAACGACAAGAGCCA; chemistry not given here) [compound 1455]”, the Validated cytotoxicity is reported as “+”. In the case of “2266 (DNA AGAGGTTTAGGCTAGCTACAACGAAGTCTAGGT; chemistry not given here) [compound 2266]”, the Validated cytotoxicity is reported as “+”. With “1602 (DNA CTGGGGCTTCCGAGCCGGACGATCAAAAGGT; chemistry not given here) [compound 1602]” the Validated cytotoxicity was “+”. “352 (DNA GTTCTGACAGGCTAGCTACAACGAGGCGCCTGA; chemistry not given here) [compound 352]” was tested, and the Validated cytotoxicity was “+”. With “1641 (DNA AGAGGGGAAGGCTAGCTACAACGATGCAGAGCC; chemistry not given here) [compound 1641]” the Validated cytotoxicity was “+”. With “1003 (DNA GCCAGAGGTCCGAGCCGGACGAGGGGGGCAG; chemistry not given here) [compound 1003]” the Validated cytotoxicity was “+”. In the case of “1873 (DNA ATAACCCCAGGCTAGCTACAACGATCAAGGGGG; chemistry not given here) [compound 1873]”, the Validated cytotoxicity is reported as “+”. In the case of “603 (DNA ATCCCGGCTCCGAGCCGGACGACGCCGGGGC; chemistry not given here) [compound 603]”, the Validated cytotoxicity is reported as “+”. “1976 (DNA GGGGAGGGAGGCTAGCTACAACGAGGGGTGGAT; chemistry not given here) [compound 1976]” was tested, and the Validated cytotoxicity was “+”.
